Experiments:
[1] = oral administration of 100 mg/kg NTB, prior studies; cited from earlier work
[2] = tested on: silicotic animals; settings: daily oral 100 mg/kg; model with lower silica dose (2.5 mg/mouse); cited from earlier work
[3] = free-base form; cited from earlier work
[4] = tested on: silica-induced pulmonary fibrosis model; test: Therapeutic efficacy in silica-induced pulmonary fibrosis model (histology, lung mechanics); assay type: in vivo, C57BL/6 mice; settings: oral 100 mg/kg daily
Protocol: The Study design for assessing the therapeutic efficacy of NTB-NS in a preclinical silica-induced pulmonary fibrosis model is shown in FIG. 7. The silicosis model was established by a single intratracheal instillation of silica microparticles (800 mg/kg) into the lungs of C57BL/6 mice (Silicosis); in parallel, healthy control animals received saline in an identical manner (Control). Fifteen days after the silica instillation, animals were randomly assigned to different groups to receive oral daily doses of NTB-Esy at 100 mg/kg or intratracheal NTB-NS at a NTB dose of 0.1 or 1 mg/kg every 72 hours. Lungs were harvested for analysis at Day 34. IT: intratracheal; OR: oral. […]
For lung mechanics analysis at the end of treatments, mice were sedated with diazepam (1 mg/kg, intraperitoneal), anesthetized with thiopenthal sodium (20 mg/kg, intraperitoneal), tracheotomized, paralyzed with vecuronium bromide (0.005 mg/kg, intravenous), and ventilated with a constant flow ventilator (Samay VR 15, Montevideo, Uruguay) using the following parameters: frequency 100 breaths/min; tidal volume 0.2 mL; fraction of inspired oxygen 0.21. […] Data were analyzed using ANADAT data analysis software (RHT-InfoData Inc., Montreal Canada).
For histological analysis, left lung tissues were fixed with 4% paraformaldehyde and embedded in paraffin blocks. […] The granuloma fraction was calculated as follows: […]

Question: Which “Amount of drug available in mouse lungs” value [1] does the source give for `COC(=O)c1ccc2c(c1)NC(=O)/C2=C(\Nc1ccc(N(C)C(=O)CN2CCN(C)CC2)cc1)c1ccccc1` [NTB, Nintedanib] here?
Answer: Its value is “approximately 2.5 μg”.

Question: What about the “Fibrotic score in the lungs of silicotic animals” value [2] of the same compound?
Answer: Its value is “significantly reduces”.

Question: And the Aqueous solubility [3]?
Answer: The Aqueous solubility was “low aqueous solubility”.

Question: Which results are given for `CCS(=O)(=O)O.COC(=O)c1ccc2c(c1)NC(=O)/C2=C(\Nc1ccc(N(C)C(=O)CN2CCN(C)CC2)cc1)c1ccccc1` [NTB-Esy, NTB Esylate]?
Answer: Area of collagen deposition in alveolar septa versus untreated silicotic animals [4]: unlike 100 mg/kg oral NTB-Esy, significantly reduced; Static lung elastance (Est,L) [4]: unlike oral NTB-Esy (100 mg/kg, daily), significantly decreased
